Where “and” joins values, the source holds several entries; their conditions need not be identical. Equal values may be shown once. Toxic doses and inconclusive results are not listed.
System: P388 leukemia ip, CD2F1 mice, survival T/C
Assay: NCI In Vivo Anticancer Drug Screen. Data for tumor model P388 Leukemia (intraperitoneal) in CD2F1 (CDF1) mice
Details: endpoint: median survival time, higher = longer survival
Outline: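 Mice carrying the transplanted tumor received test compound or vehicle. Survival was recorded in each group, and the value is the treated-group measurement divided by that of the vehicle-treated control group.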

[1] = dose: 6.25 mg/kg/injection, schedule: Q01DX009 (ip), vehicle: saline with Tween-80
[2] = dose: 12.5 mg/kg/injection, schedule: Q01DX009 (ip), vehicle: saline with Tween-80
[3] = dose: 50.0 mg/kg/injection, schedule: Q01DX005 (ip), vehicle: saline with Tween-80
[4] = dose: 100.0 mg/kg/injection, schedule: Q01DX005 (ip), vehicle: saline with Tween-80
[5] = dose: 200.0 mg/kg/injection, schedule: Q01DX005 (ip), vehicle: saline with Tween-80
[6] = dose: 100.0 mg/kg/injection, schedule: Q04DX002 (ip), vehicle: saline with Tween-80
[7] = dose: 25.0 mg/kg/injection, schedule: Q01DX009 (ip), vehicle: saline with Tween-80
[8] = dose: 50.0 mg/kg/injection, schedule: Q01DX009 (ip), vehicle: saline with Tween-80

FC(F)(F)S.[Hg]
T/C (dose: 2.5 mg/kg/injection, schedule: Q04DX003 (ip), vehicle: saline): 95 % of control
T/C (dose: 5.0 mg/kg/injection, schedule: Q04DX003 (ip), vehicle: saline): 100 % of control
T/C (dose: 10.0 mg/kg/injection, schedule: Q04DX003 (ip), vehicle: saline): 95 % of control

O=C(O)/C=C/C(=O)N1Cc2cc3ccccc3nc2C1
T/C (dose: 1.56 mg/kg/injection, schedule: Q01DX009 (ip), vehicle: saline with Tween-80): 100 % of control and 101 % of control and 104 % of control
T/C (dose: 3.13 mg/kg/injection, schedule: Q01DX009 (ip), vehicle: saline with Tween-80): 99 % of control and 103 % of control and 117 % of control
T/C [1]: 101 % of control and 94 % of control
T/C (dose: 8.0 mg/kg/injection, schedule: Q01DX009 (ip), vehicle: saline with Tween-80): 91 % of control
T/C [2]: 98 % of control and 99 % of control and 107 % of control
T/C (dose: 16.0 mg/kg/injection, schedule: Q01DX009 (ip), vehicle: saline with Tween-80): 94 % of control
T/C (dose: 32.0 mg/kg/injection, schedule: Q01DX009 (ip), vehicle: saline with Tween-80): 99 % of control
T/C (dose: 64.0 mg/kg/injection, schedule: Q01DX009 (ip), vehicle: saline with Tween-80): 94 % of control

CC(=O)C(=C/C=C/c1ccccc1)C(C)=O
T/C [3]: 90 % of control
T/C [4]: 98 % of control
T/C [5]: 100 % of control

CCCOc1cc2c(cc1C(C)c1ccc(OC)c(C)c1)OCO2 (configuration not stated)
T/C (dose: 60.0 mg/kg/injection, schedule: Q01DX005 (ip), vehicle: saline + Tween-80 + alcohol): 97 % of control
T/C (dose: 120.0 mg/kg/injection, schedule: Q01DX005 (ip), vehicle: saline + Tween-80 + alcohol): 109 % of control
T/C (dose: 240.0 mg/kg/injection, schedule: Q01DX005 (ip), vehicle: saline + Tween-80 + alcohol): 108 % of control

c1ccc(C2=NC(c3ccccc3)=NS(S3=NC(c4ccccc4)=NC(c4ccccc4)=N3)=N2)cc1 (configuration not stated)
T/C [3]: 106 % of control
T/C [4]: 90 % of control
T/C [5]: 88 % of control

CCCCCCCCCCCCCCC1(O)OC(=O)C(C)=C1C (configuration not stated)
T/C (dose: 12.5 mg/kg/injection, schedule: Q04DX003 (ip), vehicle: saline with Tween-80): 106 % of control
T/C (dose: 25.0 mg/kg/injection, schedule: Q04DX003 (ip), vehicle: saline with Tween-80): 103 % of control
T/C (dose: 50.0 mg/kg/injection, schedule: Q04DX003 (ip), vehicle: saline with Tween-80): 106 % of control

NC(N)=NS(=O)(=O)c1ccc(N=c2c3ccccc3n(-c3ccccc3)c3ccccc23)cc1
T/C [3]: 90 % of control
T/C [4]: 87 % of control

Cc1cc(Cl)c2ccc(Cl)c(C)c2n1
T/C [3]: 102 % of control
T/C [4]: 104 % of control
T/C [5]: 100 % of control

Cc1cc(C)c(C#N)c(SCC(=O)c2sc3c(C#N)c(C)cc(C)[n+]3c2[O-])n1
T/C [3]: 90 % of control
T/C [4]: 90 % of control
T/C [5]: 95 % of control

CCCCNC(=S)N/N=C/c1nc2ccccc2c(=O)n1-c1ccc(Br)cc1
T/C [6]: 98 % of control
T/C (dose: 200.0 mg/kg/injection, schedule: Q04DX002 (ip), vehicle: saline with Tween-80): 89 % of control

N#CCS(=O)(=O)OCCCl
T/C (dose: 12.5 mg/kg/injection, schedule: Q01DX005 (ip), vehicle: saline with Tween-80): 120 % of control
T/C (dose: 37.5 mg/kg/injection, schedule: Q01DX005 (ip), vehicle: saline with Tween-80): 151 % of control

NNCCO
T/C (dose: 3.12 mg/kg/injection, schedule: Q01DX009 (ip), vehicle: saline with Tween-80): 108 % of control
T/C [1]: 99 % of control and 100 % of control
T/C [2]: 99 % of control and 103 % of control
T/C [7]: 100 % of control and 104 % of control
T/C [8]: 100 % of control

CC1(C)C(O)C(C)(C)C1O (configuration not stated)
T/C [2]: 100 % of control
T/C [7]: 100 % of control
T/C [8]: 100 % of control

CC1COCCOCCOCC(C)OC(=O)COCC(=O)O1 (configuration not stated)
T/C (dose: 50.0 mg/kg/injection, schedule: Q01DX009 (ip), vehicle: Klucel (hydroxypropylcellulose) (HPC)): 99 % of control
T/C (dose: 100.0 mg/kg/injection, schedule: Q01DX009 (ip), vehicle: Klucel (hydroxypropylcellulose) (HPC)): 101 % of control
T/C (dose: 200.0 mg/kg/injection, schedule: Q01DX009 (ip), vehicle: Klucel (hydroxypropylcellulose) (HPC)): 105 % of control

O=C1C(C(=Nc2ccc(Br)cc2)c2ccccc2)=C(O)c2ccccc21
T/C (dose: 25.0 mg/kg/injection, schedule: Q04DX002 (ip), vehicle: saline with Tween-80): 93 % of control
T/C (dose: 50.0 mg/kg/injection, schedule: Q04DX002 (ip), vehicle: saline with Tween-80): 99 % of control
T/C [6]: 92 % of control

Clc1ccc(Oc2ccc(N3C=Nc4ccc(Oc5ccc(Cl)cc5)cc4C3)cc2)cc1
T/C (dose: 100.0 mg/kg/injection, schedule: Q01DX009 (ip), vehicle: saline with Tween-80): 110 % of control
T/C (dose: 200.0 mg/kg/injection, schedule: Q01DX009 (ip), vehicle: saline with Tween-80): 100 % of control
T/C (dose: 400.0 mg/kg/injection, schedule: Q01DX009 (ip), vehicle: saline with Tween-80): 115 % of control

From PubChem BioAssay AID330 (DTP/NCI, 2004)
